Broadly, the solubility is how much of the substance goes into solution per volume.

Entries after “also recorded” stand apart in the source; their conditions may differ. Counter-ions that a name gives are not always drawn.

Common to all, as to assay type: physicochemical
Data set [1] in a line: Solubility in acetonitrile (50 mg added to 1 mL with stirring). To be noted: for solubility observation (in words): 24° C. / room temperature (20-25° C.). Here is the method:
(§1) Dabigatran etexilate mesylate, Form I, 50 mg, was added to acetonitrile (1 mL) with stirring, at 24° C. The product was not soluble under these conditions. The mixture was stirred for 48 hours, filtered and analysed to be Form A of dabigatran etexilate mesylate as determined by powder XRD.
(§2) The solubility of the amorphous form is therefore >50 mg/mL. After approximately 5 minutes a solid crystallized. The mixture was stirred for 48 hours, filtered and analysed to be Form A of dabigatran etexilate mesylate as determined by powder XRD.
(§3) Dabigatran etexilate mesylate, Form A, 50 mg, was added to acetonitrile (1 mL) with stirring, at 24° C. The product was not soluble under these conditions. The mixture was stirred for 48 hours, filtered and analysed to be Form A of dabigatran etexilate mesylate as determined by powder XRD.

Data set [2] can be described thus: Stability assay: slurrying in acetonitrile, solid form by powder XRD. The following applies: acetonitrile 1 mL, 50 mg, 24° C. (room temperature), stirred 48 hours. The protocol:
(§4) Powder diffraction patterns were acquired using a PANalytical, X'Pert diffractometer using CuKalpha-radiation. The system was configured in theta-theta, transmission geometry equipped with a focusing X-ray mirror and PIXcel detector.
as §1, §2, §3

A short description of data set [3]: Solvent mediated transformation of mixtures of forms in 2-propanol, solid form by powder XRD. The following applies: 2-propanol 0.6 mL, ambient temperature, orbital agitator. The protocol: as §4
Dabigatran etexilate mesylate, a mixture of Form I, 17 mg and Form A, 15 mg, was suspended in 2-propanol (0.6 mL) and the mixture agitated at ambient temperature using an orbital agitator for 64 hours. The mixture was filtered, dried under vacuum and analysed to be purely Form A of dabigatran etexilate mesylate as determined by powder XRD.
Dabigatran etexilate mesylate, a mixture of Form II, 10 mg and Form A, 15 mg, was suspended in 2-propanol (0.6 mL) and the mixture agitated at ambient temperature using an orbital agitator for 7 days. The mixture was filtered, dried under vacuum and analysed to be purely Form A of dabigatran etexilate mesylate as determined by powder XRD.

With `CCCCCCOC(=O)NC(=N)c1ccc(NCc2nc3cc(C(=O)N(CCC(=O)OCC)c4ccccn4)ccc3n2C)cc1` [amorphous dabigatran etexilate mesylate, dabigatran etexilate mesylate], in data set [1] (50 mg in 1 mL acetonitrile), the “solubility observation (in words)” value is on record as “complete dissolution almost immediately; also recorded: completely dissolved”. In data set [1] (50 mg in 1 mL acetonitrile, 24° C., after complete dissolution), the “time until a solid crystallized from the acetonitrile solution” value was “approximately 5 minutes”. Further, the solubility in data set [1] (organic solvent or mixture, thermodynamic from solid, acetonitrile, 24° C., 50 mg in 1 mL) was over 50 mg/mL. Moreover, the “solid form after slurrying (powder XRD)” value in data set [2] is reported as “Form A”.
`CCCCCCOC(=O)NC(=N)c1ccc(NCc2nc3cc(C(=O)N(CCC(=O)OCC)c4ccccn4)ccc3n2C)cc1` [dabigatran etexilate mesylate Form A, dabigatran etexilate mesylate]: the “solubility observation (in words)” value in data set [1] (50 mg in 1 mL acetonitrile) was “not soluble; also recorded: at least partly insoluble”. The “solid form after slurrying (powder XRD)” value in data set [2] is listed as “Form A; also recorded: stable”.
The matching figures for `CCCCCCOC(=O)NC(=N)c1ccc(NCc2nc3cc(C(=O)N(CCC(=O)OCC)c4ccccn4)ccc3n2C)cc1` [dabigatran etexilate mesylate Form I, dabigatran etexilate mesylate]: “not soluble; also recorded: at least partly insoluble” and “converted entirely into Form A”.
As to `CCCCCCOC(=O)/N=C(\N)c1ccc(NCc2nc3cc(C(=O)N(CCC(=O)OCC)c4ccccn4)ccc3n2C)cc1` [mixture of Form I and Form A, dabigatran etexilate mesylate], the “solid form after slurrying mixture of forms (powder XRD)” value in data set [3] (64 hours) is “purely Form A; also recorded: converted entirely into Form A”.
For `CCCCCCOC(=O)/N=C(\N)c1ccc(NCc2nc3cc(C(=O)N(CCC(=O)OCC)c4ccccn4)ccc3n2C)cc1` [mixture of Form II and Form A, dabigatran etexilate mesylate], the “solid form after slurrying mixture of forms (powder XRD)” value in data set [3] (7 days) is reported as “purely Form A; also recorded: converted entirely into Form A”.

Source of the values: patent US9073899B2, “Solid forms of dabigatran etexilate mesylate and processes for their preparation” (ESTEVE QUÍMICA, S.A., priority 2012, dated 2015).
